Data taken from patent publication US5869265A, “Ileal bile acid transporter compositions and methods” (Wake Forest University, priority 1996, dated 1999).
Where two headings read alike, the source gives them in different places.

Key:
[1] = target: T1, human ileal/renal bile acid transporter (Homo sapiens, UniProt Q12908, S171A); test: Substrate specificity: [^3 H]taurocholate competition in HIBAT-transfected COS cells (Dixon plot); assay type: cell-based; design: were fused to make a single clone encoding the entire gene; expressed in transfected cells; host or cells: COS cells, transient DEAE-dextran transfection with pCMV5-HIBAT
T1 sequence (Q12908 1-348 S171A): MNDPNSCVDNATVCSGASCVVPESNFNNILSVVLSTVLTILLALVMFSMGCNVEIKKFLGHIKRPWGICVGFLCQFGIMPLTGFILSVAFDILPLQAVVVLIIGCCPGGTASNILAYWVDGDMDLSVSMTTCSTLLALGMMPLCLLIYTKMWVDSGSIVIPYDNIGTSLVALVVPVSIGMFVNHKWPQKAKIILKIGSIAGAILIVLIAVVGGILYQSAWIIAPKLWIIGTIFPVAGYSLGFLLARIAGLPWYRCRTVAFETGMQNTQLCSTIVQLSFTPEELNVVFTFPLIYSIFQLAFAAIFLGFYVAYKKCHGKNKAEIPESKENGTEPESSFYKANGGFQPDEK
Source text: It is the ileal/renal bile acid transporter system's remarkable substrate specificity that makes it an appealing pharmacological target for the treatment of hypercholesterolemia by interrupting the enterohepatic circulation of bile acids. […] These studies of the major bile acid species were later extended in animal model systems to include various chemical derivatives of bile acids. However, the affinity of the human ileal/renal bile acid transporter for these natural bile acids has never been studied systematically. In addition to bile acids, the transport of other organic anions has been studied. […] The Km, Vmax, and Ki values were determined using Eadie-Hofstee and Dixon plot analysis.

[2] = target: T2, ileal Na^+ /bile acid cotransporter (IBAT) (Cricetulus griseus, UniProt Q60414); test: Competition for [^3 H]taurocholate uptake in pIBAT-transfected COS cells (transport specificity, FIG. 6A); assay type: cell-based, hamster; details: for effect on [^3 H]taurocholate uptake (in words): 50 μM competitor, compared with taurocholate; for inhibition of [^3 H]taurocholate uptake: 50 μM unlabeled competitor, 5 μM [^3 H]taurocholate (10-fold molar excess)
T2 construct: The hamster IBAT cDNA encodes a protein of 348 amino acids; expressed in transfected cells; host or cells: COS-1 cells, transient DEAE-dextran transfection with pIBAT (cDNA in pCMX)
T2 sequence (Q60414 1-348): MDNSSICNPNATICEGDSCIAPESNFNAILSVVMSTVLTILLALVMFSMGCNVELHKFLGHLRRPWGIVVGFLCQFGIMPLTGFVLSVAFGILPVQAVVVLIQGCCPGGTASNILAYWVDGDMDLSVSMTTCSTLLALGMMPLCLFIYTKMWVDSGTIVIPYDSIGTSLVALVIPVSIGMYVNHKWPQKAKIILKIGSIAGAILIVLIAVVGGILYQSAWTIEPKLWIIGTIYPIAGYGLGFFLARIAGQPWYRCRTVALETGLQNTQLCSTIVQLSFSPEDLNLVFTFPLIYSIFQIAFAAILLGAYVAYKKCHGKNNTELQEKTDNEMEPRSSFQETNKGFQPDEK
Protocol: FIG. 6A. Transport specificity of pIBAT-transfected COS cells in the presence of competitors. COS cells were plated and transfected as described in the description of FIG. 4 (immediately above).
(§1) On day 0, dishes of 1.50×10^6 cells per 100-mm dish were plated in medium A. On day 1, the cells were transfected by the DEAE-dextran method (Esser et al., 1988) with 5 μg plasmid DNA. […] After the indicated amount of time at 37° C., the medium was removed, and each cell monolayer was washed and processed to determine cell-associated protein and radioactivity as described above.
To examine the transport specificity of the IBAT protein, COS cells were transfected with the IBAT cDNA and incubated with 50 μM unlabeled bile acid or other competitor.

ileal transporter = details: in vivo; cited from earlier work
[3] = system: liver taurocholate uptake; details: cited from earlier work
[4] = target: T2, ileal Na^+ /bile acid cotransporter (IBAT); test: Inhibition of [^3 H]taurocholate uptake by organic anions in pIBAT-transfected COS cells (FIG. 6B); assay type: cell-based, hamster; details: 100 μM unlabeled inhibitor, 5 μM [^3 H]taurocholate
Protocol: FIG. 6B. […] COS cells were plated and transfected as described in the description of FIG. 4 (immediately above).
as §1

liver membranes = details: cited from earlier work
[5] = target: T1, human ileal/renal bile acid transporter; test: Anion specificity of taurocholate uptake in HIBAT-transfected COS cells; details: for taurocholate uptake on replacing chloride (in words): anion in place of chloride; for Taurocholate Uptake, percentage of control: control = uptake in the presence of NaCl, 15 min, 137000 µM
Protocol: COS cells were seeded (1.5×10^6 cells/100 mm dish) in DMEM and transfected the following day with pCMV5-HIBAT or pCMV2-βgalactosidase (5 μg) by the DEAE-dextran method. On day 2, each group of transfected cells was treated with trypsin, pooled, and replated in 24-well culture plates at 7×10^4 cells/well. […] The cells were then lysed in 0.1N NaOH and aliquots were taken to determine protein and cell-associated radioactivity. […] Data are also given as percentage of control (uptake in the presence of NaCl).

cholestasis = details: patients with cholestasis; cited from earlier work
[6] = target: T3, human ileal/renal bile acid transporter (Homo sapiens, UniProt Q12908); test: Cation specificity of taurocholate uptake in HIBAT-transfected COS cells; assay type: cell-based; details: 137 mM cation, 5 μM [^3 H]taurocholate, 15 min, 37° C., mean±SD of triplicate
T3 construct: were fused to make a single clone encoding the entire gene; expressed in transfected cells; host or cells: COS cells, transient DEAE-dextran transfection with pCMV5-HIBAT
T3 sequence (Q12908 1-348 S171A): T1 sequence (Q12908 1-348 S171A)
Protocol: (§2) COS cells were seeded (1.5×10^6 cells/100 mm dish) in DMEM and transfected the following day with pCMV5-HIBAT or pCMV2-βgalactosidase (5 μg) by the DEAE-dextran method. On day 2, each group of transfected cells was treated with trypsin, pooled, and replated in 24-well culture plates at 7×10^4 cells/well. […] The cells were then lysed in 0.1N NaOH and aliquots were taken to determine protein and cell-associated radioactivity. […] Data are also given as percentage of control (uptake in the presence of sodium).

[7] = system: ileal/renal bile acid transporter; details: cation replacing Na^+; cited from earlier work
[8] = target: T1, human ileal/renal bile acid transporter; test: Cation specificity of taurocholate uptake in HIBAT-transfected COS cells; assay type: cell-based; design: were fused to make a single clone encoding the entire gene; expressed in transfected cells; host or cells: COS cells, transient DEAE-dextran transfection with pCMV5-HIBAT; details: for Taurocholate Uptake, percentage of control: control = uptake in the presence of sodium, 15 min, 137000 µM
Protocol: as §2

[9] = target: T2, ileal Na^+ /bile acid cotransporter (IBAT); test: Sodium-dependence of taurocholate uptake in IBAT-transfected COS cells; assay type: cell-based, hamster
Protocol: as §1

Molecule: C[C@H](CCC(=O)O)[C@H]1CC[C@H]2[C@@H]3CC[C@@H]4C[C@H](O)CC[C@]4(C)[C@H]3C[C@H](O)[C@]12C [Deoxycholate]
- Ki [1]: 6.4 ± 2.5 µM

Molecule: C[C@H](CCC(=O)NCCS(=O)(=O)O)[C@H]1CC[C@H]2[C@@H]3[C@@H](O)C[C@@H]4C[C@H](O)CC[C@]4(C)[C@H]3CC[C@]12C [Tauroursodeoxycholate]
- Ki ([1]; read-out: Apparent Ki): 28.4 ± 7.4 µM

Molecule: NCCS(=O)(=O)O [taurine]
- effect on [^3 H]taurocholate uptake (in words) [2]: limited effect

Molecule: O=S(=O)(O)c1cc(N=C=S)ccc1C=Cc1ccc(N=C=S)cc1S(=O)(=O)O [DIDS, 4,4'-diisothiocyano-2,2'-disulfonic acid stilbene]
- effect against the ileal transporter (in words) (ileal transporter): ineffective
- competition for liver taurocholate uptake (in words) [3]: compete for liver taurocholate uptake
- inhibition of [^3 H]taurocholate uptake (in words) [4]: not to be significantly inhibited
- inhibition of [^3 H]taurocholate uptake (in words) ([4]; listed as 4,4'-diisothiocyano-2,2'-disulfonic acid stilbene (DIDS)): not inhibited
- inhibition of Na^+ -dependent taurocholate uptake (in words) (liver membranes): shown to inhibit

Molecule: phalloidin
- effect against the ileal transporter (in words) (ileal transporter): ineffective
- competition for liver taurocholate uptake (in words) [3]: compete for liver taurocholate uptake

Molecule: Phosphate
- taurocholate uptake on replacing chloride (in words) [5]: markedly reduced
- Taurocholate Uptake, percentage of control [5]: 31%

Molecule: C[C@H](CCC(=O)O)[C@H]1CC[C@H]2[C@@H]3[C@H](O)C[C@@H]4C[C@H](O)CC[C@]4(C)[C@H]3CC[C@]12C [Chenodeoxycholate]
- Ki [1]: 3.3 ± 1.9 µM

Molecule: CC1(C)C(/C=C/C=C/C=C/C=C2\N(CCCCS(=O)(=O)O)c3ccc4ccccc4c3C2(C)C)=[N+](CCCCS(=O)(=O)[O-])c2ccc3ccccc3c21 [indocyanine green]
- effect against the ileal transporter (in words) (ileal transporter): ineffective
- competition for liver taurocholate uptake (in words) [3]: compete for liver taurocholate uptake

Molecule: CC(=O)O [Acetate, sodium acetate]
- taurocholate uptake on replacing chloride (in words) [5]: markedly reduced

Molecule: Cl [Chloride]
- Taurocholate Uptake, percentage of control [5]: 100%

Molecule: C[C@H](CCC(=O)NCCS(=O)(=O)O)[C@H]1CC[C@H]2[C@@H]3CC[C@@H]4C[C@H](O)CC[C@]4(C)[C@H]3C[C@H](O)[C@]12C [Taurodeoxycholate, taurodeoxycholate]
- effect on [^3 H]taurocholate uptake (in words) [2]: competed more effectively
- effect on [^3 H]taurocholate uptake (in words) ([2]; listed as taurodeoxycholic acid): more effective competitors
- inhibition of [^3 H]taurocholate uptake [2]: 80%
- Ki [1]: 17.3 ± 3.9 µM

Molecule: O=S(=O)(O)O [Sulfate]
- Taurocholate Uptake, percentage of control [5]: 69%

Molecule: C[C@H](CCC(=O)O)[C@H]1CC[C@H]2[C@@H]3[C@@H](O)C[C@@H]4C[C@H](O)CC[C@]4(C)[C@H]3CC[C@]12C [Ursodeoxycholate, Ursodeoxycholic acid]
- Ki [1]: 77.1 ± 17.2 µM
- treatment outcome (in words) (cholestasis): improves liver function, but does not stop the progression of the disease

Molecule: [Li] [Lithium]
- Taurocholate Uptake [6]: 0.3 ± 0.04 pmol/min/mg
- effect of replacing Na^+ on active taurocholate transport (in words) [7]: significantly inhibited

Molecule: C[C@H](CCC(=O)NCCS(=O)(=O)O)[C@H]1CC[C@H]2[C@@H]3[C@H](O)C[C@@H]4C[C@H](O)CC[C@]4(C)[C@H]3CC[C@]12C [Taurochenodeoxycholate, taurochenodeoxycholate]
- effect on [^3 H]taurocholate uptake (in words) [2]: competed more effectively
- effect on [^3 H]taurocholate uptake (in words) ([2]; listed as taurochenodeoxycholic acid): more effective competitors
- inhibition of [^3 H]taurocholate uptake [2]: 87%
- Ki ([1]; read-out: Apparent Ki): 3.2 ± 0.5 µM

Molecule: [Na+] [Sodium]
- Taurocholate Uptake, percentage of control [8]: 100%
- Taurocholate Uptake [6]: 9.2 ± 0.41 pmol/min/mg
- taurocholate uptake (100% of control value) ([9]; 137 mM sodium, 5 μM [^3 H]taurocholate, 15 minutes): 134±26 pmoles min^-1 mg^-1 protein

Molecule: O=C1OC(c2ccc(O)c(S(=O)(=O)O)c2)(c2ccc(O)c(S(=O)(=O)O)c2)c2c(Br)c(Br)c(Br)c(Br)c21 [BSP, bromosulfophthalein]
- inhibition of [^3 H]taurocholate uptake (in words) [4]: not to be significantly inhibited
- inhibition of [^3 H]taurocholate uptake (in words) ([4]; listed as bromosulfophthalein (BSP)): not inhibited
- inhibition of Na^+ -dependent taurocholate uptake (in words) (liver membranes): shown to inhibit

Molecule: C=CC1=C(C)/C(=C/c2[nH]c(Cc3[nH]c(/C=C4\NC(=O)C(C)=C4C=C)c(C)c3CCC(=O)O)c(CCC(=O)O)c2C)NC1=O [bilirubin]
- effect against the ileal transporter (in words) (ileal transporter): ineffective
- competition for liver taurocholate uptake (in words) [3]: compete for liver taurocholate uptake

Molecule: O=C(O)CC(O)(CC(=O)O)C(=O)O [Citrate]
- taurocholate uptake on replacing chloride (in words) [5]: markedly reduced

Molecule: C[C@H](CCC(=O)O)[C@H]1CC[C@H]2[C@@H]3[C@H](O)C[C@@H]4C[C@H](O)CC[C@]4(C)[C@H]3C[C@H](O)[C@]12C [Cholate]
- inhibition of [^3 H]taurocholate uptake [2]: 51%

Molecule: [Rb] [Rubidium]
- Taurocholate Uptake, percentage of control [8]: 3%
- Taurocholate Uptake [6]: 0.3 ± 0.09 pmol/min/mg
- effect of replacing Na^+ on active taurocholate transport (in words) [7]: significantly inhibited

Molecule: [Cs+] [Cesium]
- Taurocholate Uptake, percentage of control [8]: 2%
- Taurocholate Uptake [6]: 0.2 ± 0.01 pmol/min/mg
- effect of replacing Na^+ on active taurocholate transport (in words) [7]: significantly inhibited

Molecule: [K+] [Potassium]
- taurocholate uptake on replacing Na^+ (in words) ([8]; cation replacing Na^+): dramatically reduced
- Taurocholate Uptake, percentage of control [8]: 3%
- Taurocholate Uptake [6]: 0.3 ± 0.17 pmol/min/mg
- effect of replacing Na^+ on active taurocholate transport (in words) [7]: significantly inhibited
- support of [^3 H]taurocholate uptake (in words) ([9]; in place of 137 mM Na^+, equal concentration): unable to support
